Reference: ChEMBL document CHEMBL5107969, “Alzheimer's disease: Updated multi-targets therapeutics are in clinical and in progress” (Eur J Med Chem, 2022)
One block for each molecule: values may come before it.

Assays:
[1] = Drug uptake in CD-1 mouse plasma at 10 mg/kg, po via gavage measured after 5 mins by LC-MS/MS analysis; type: ADME, organism-based
[2] = Drug uptake in CD-1 mouse brain at 10 mg/kg, po via gavage measured after 5 mins by LC-MS/MS analysis; type: ADME, organism-based; conditions: read-out: Ct
[3] = Drug concentration in […] mouse brain at 3 mg/kg, po measured after 30 mins; type: ADME, organism-based; conditions: read-out: Ct
[4] = biological target: Cholinesterase (Equus caballus, UniProt P81908); test: Inhibition of equine serum BChE incubated for 15 mins by Ellman's method; type: cell-free
Sequence of Cholinesterase (P81908 whole entry): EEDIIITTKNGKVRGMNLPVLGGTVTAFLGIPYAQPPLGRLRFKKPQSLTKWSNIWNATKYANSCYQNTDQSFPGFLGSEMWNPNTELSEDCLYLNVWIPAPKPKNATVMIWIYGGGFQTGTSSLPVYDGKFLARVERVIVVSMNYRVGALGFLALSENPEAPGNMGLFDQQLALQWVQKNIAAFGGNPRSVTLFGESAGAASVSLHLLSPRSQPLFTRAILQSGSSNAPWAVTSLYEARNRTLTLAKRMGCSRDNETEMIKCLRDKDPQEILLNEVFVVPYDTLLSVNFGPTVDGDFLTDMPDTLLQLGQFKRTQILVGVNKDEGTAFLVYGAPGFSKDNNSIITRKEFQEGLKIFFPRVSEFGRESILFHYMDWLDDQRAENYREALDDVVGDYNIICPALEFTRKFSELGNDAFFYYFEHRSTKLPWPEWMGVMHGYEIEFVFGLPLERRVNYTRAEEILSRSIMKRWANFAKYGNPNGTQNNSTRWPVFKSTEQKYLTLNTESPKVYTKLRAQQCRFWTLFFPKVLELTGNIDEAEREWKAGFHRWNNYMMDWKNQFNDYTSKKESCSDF

[5] = biological target: T1, Amyloid-beta precursor protein (Homo sapiens, UniProt P05067); test: Disaggregation of self-induced amyloid beta (1 to 42) (unknown origin) aggregation at 25 uM incubated for 24 hrs by Thioflavin T-based fluorometric assay relative to control
T1 sequence (P05067 whole entry): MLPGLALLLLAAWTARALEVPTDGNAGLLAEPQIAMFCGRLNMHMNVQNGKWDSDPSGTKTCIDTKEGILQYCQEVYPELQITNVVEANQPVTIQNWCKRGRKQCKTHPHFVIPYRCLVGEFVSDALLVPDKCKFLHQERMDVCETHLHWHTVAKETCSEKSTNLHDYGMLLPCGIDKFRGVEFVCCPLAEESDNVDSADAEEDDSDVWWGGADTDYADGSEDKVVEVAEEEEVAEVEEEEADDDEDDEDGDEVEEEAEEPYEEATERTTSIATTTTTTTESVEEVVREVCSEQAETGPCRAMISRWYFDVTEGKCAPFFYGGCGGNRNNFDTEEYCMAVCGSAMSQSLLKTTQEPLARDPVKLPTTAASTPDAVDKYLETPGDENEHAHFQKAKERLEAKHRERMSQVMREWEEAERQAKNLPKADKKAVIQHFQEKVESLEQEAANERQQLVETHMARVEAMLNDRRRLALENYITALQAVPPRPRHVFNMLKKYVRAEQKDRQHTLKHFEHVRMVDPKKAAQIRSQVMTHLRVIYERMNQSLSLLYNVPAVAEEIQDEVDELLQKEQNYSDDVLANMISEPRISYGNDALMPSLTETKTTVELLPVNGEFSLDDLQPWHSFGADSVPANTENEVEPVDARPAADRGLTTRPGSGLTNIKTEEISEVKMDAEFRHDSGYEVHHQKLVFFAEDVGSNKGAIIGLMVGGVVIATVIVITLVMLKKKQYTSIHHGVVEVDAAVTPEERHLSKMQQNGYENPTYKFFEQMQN

[6] = biological target: T1, Amyloid-beta precursor protein; test: Inhibition of self-induced amyloid beta (1 to 42) (unknown origin) aggregation at 25 uM incubated for 24 hrs by Thioflavin T-based fluorometric assay relative to control
[7] = biological target: T1, Amyloid-beta precursor protein; test: Inhibition of human AChE-induced amyloid beta (1 to 40) aggregation (unknown origin)
[8] = system: HEK293; test: Induction of Nrf2/ARE transcriptional activation in human HEK293 cells measured after 24 hrs by Bright-Glo luciferase assay; type: cell-based; conditions: filed as activator
[9] = species on record: Homo sapiens; test: Selectivity ratio of Ki for sigma1 receptor (unknown origin) to Ki for sigma2 receptor (unknown origin)

concentration at 5 min [1]: 5.91 ng/mL
concentration at 5 min [2]: 14.3 ng/mL
SMILES: CN(C)c1ccc(O)c(CNc2cccc3ccc(CO)nc23)c1

concentration at 0.5 h [3]: 620 nM
SMILES: NC1=NC(c2ccc(F)cc2)NC(=O)N1 (centres undefined)

SMILES: CCN(CCCCOc1ccc(/C=C/C(=O)N2CCc3ccccc3C2)cc1OC)Cc1ccccc1
IC50 [4]: 0.0089 µM
Activity [5]: 43.8%
inhibition [6]: 53.9%

SMILES: CCN(CCCCCCNC1=CC(=O)C(NCCCCCCN(CC)Cc2ccccc2OC)=CC1=O)Cc1ccccc1OC [MEMOQUIN]
IC50 [7]: 28.3 µM

SMILES: CCCOc1ccc2[nH]cc(CCNC(=O)CN(CCc3c[nH]c4ccc(OCc5ccccc5)cc34)C(=O)CCCC[C@@H]3CCSS3)c2c1
CD [8]: 28.1 µM

Ratio Ki [9]: 28
SMILES: O=c1ccoc2ccc(OCCCN3CCCCCC3)cc12
